Results as given in patent US12544347B2, “Anti-cancer combination and a method of therapy using the combination” (NATIONAL CENTRE FOR CELL SCIENCE, priority 2018, dated 2026).
Counter-ions that a name gives are not always drawn.

Assays:
Assay type in all cases: cell-based
LN-18 cells = assay: MTT assay, cell viability in LN-18 cells (monolayer or multicellular spheroids); conditions: 24 hr
Method: (§1) FIG. 1 depicts cell viability assessed by MTT assay in GBM cell lines-LN-18 and LN-229 using tamoxifen (TAM) at concentration of 5 μg/ml, 10 μg/ml and 15 μg/ml; individually and in combination with Valproic Acid (VPA) (2 mM) wherein the cells were cultured as monolayer (ML) or Multicellular Spheroids (MCS). Unt-open bar-represents untreated cells and hatched bar—[…] (2 mM). Further, the open bars (in 5, 10 15) depict TAM alone and the hatched bars depict TAM in combination with VPA. FIG. 1 also depicts the P values (represented as *) significant for differences between TAM alone versus TAM+VPA. The images are LN-18 cells grown as 2D cultures—ML and 3D-MCS.
FIG. 3 depicts the effect of Valpromide (VPM), an analogue of VPA causing sensitization of tamoxifen (TAM) which induced cell death in LN-18 cells cultured as monolayer (ML). […] The P values (represented as *) are significant for differences between TAM alone versus TAM+VPA/VPM.
MTT assay was employed for assessing the combined action of tamoxifen (TAM) and VPA. LN-18 cells and LN-229 were seeded in 96 well plate (5000 cells/100 ul/well) in complete medium and cultured for 24 hr in two culture models-monolayer and 3D culture. Cells were treated with tamoxifen (TAM) at 3 concentrations-5 μg/ml, 10 μg/ml and 15 μg/ml either individually or in combination with Valproic Acid (VPA) (2 mM) for 24 hr. MTT was added and after 4 hr the crystals were solubilized using DMSO. Absorbance was recorded at 490 nm (test filter) and 570 nm (reference filter). The % cell viability in treated cells was calculated considering the readings in untreated cells as 100%. The results are presented at FIG. 1. […] From FIG. 1, it is evident that the combination of the present invention is synergistic.
LN-18 cells (ML) were seeded in 96 well plate (5000 cells/100 ul/well) in complete medium and cultured for 24 hr. […] Absorbance was recorded at 490 nm (test filter) and 570 nm (reference filter). The % cell viability with treatment was calculated with readings in untreated cells considered as 100%. […]

LN-229 cells = assay: MTT assay, cell viability in LN-229 cells (monolayer or multicellular spheroids); conditions: LN-229 MCS; TAM alone; 24 hr
Method: as §1
MTT assay was employed for assessing the combined action of tamoxifen (TAM) and VPA. LN-18 cells and LN-229 were seeded in 96 well plate (5000 cells/100 ul/well) in complete medium and cultured for 24 hr in two culture models-monolayer and 3D culture. Cells were treated with tamoxifen (TAM) at 3 concentrations-5 μg/ml, 10 μg/ml and 15 μg/ml either individually or in combination with Valproic Acid (VPA) (2 mM) for 24 hr. MTT was added and after 4 hr the crystals were solubilized using DMSO. Absorbance was recorded at 490 nm (test filter) and 570 nm (reference filter). The % cell viability in treated cells was calculated considering the readings in untreated cells as 100%. The results are presented at FIG. 1. […]

[1] = system: prostate apoptosis response (Par)-4; assay: Western blotting of intracellular and secretory Par-4 in LN-18 cells; conditions: TAM 10 μg/ml, VPA 2 mM, alone or combined, 48 hr
Method: FIG. 4 depicts the effect of combination of tamoxifen (10 μg/ml) and valproic acid (2 mM) on the levels of secretory Par-4 and expression of GRP78 in […] cells wherein the control (C) represents untreated cells, V represents for valproic acid, T represents for tamoxifen and V+T represents combination of tamoxifen and valproic acid. The LN-18 cells were treated with tamoxifen or valproic acid alone or in combination for 48 hrs.
LN-18 cells were seeded in 6 well plate (0.3 million cells/well) and treated with TAM (10 μg/ml) and VPA (2 mM) either individually or in combination for 48 hr. Cell lysates were assessed for expression of intracellular prostate apoptosis response (Par)-4 and secretory Par-4 was measured in supernatants. Western blotting was done using 10% gels and the proteins were identified using specific antibodies followed by probing with luminol-based Enhanced Chemiluminescent (ECL) western blotting substrate. The results are presented at FIG. 4.

[2] = system: prostate apoptosis response (Par)-4; assay: Western blotting of intracellular Par-4 in LN-229 cells; conditions: LN-229 cell lysates; TAM 12 μg/ml, VPA 2 mM, alone or combined; 24 hr
Method: FIG. 5 depicts the effect of tamoxifen (12 μg/ml) or valproic acid (2 mM) alone or combination of tamoxifen and valproic acid on Par-4 expression in LN-229 cells for 24 hr. GAPDH was used as loading control and control group (C) represents untreated cells. LN-229 cells were seeded in 6 well plate (0.3 million cells/well) and treated with TAM (12 μg/ml) and VPA (2 mM) either individually or in combination for 24 hr. Cell lysates were assessed for expression of intracellular prostate apoptosis response (Par)-4. Western blotting was done using 10% gels and the proteins were identified using specific antibodies followed by probing with luminol-based Enhanced Chemiluminescent (ECL) western blotting substrate.

Compound | effect on % cell viability (MTT) (LN-18 cells; LN-18 MCS, TAM alone) | effect on % cell viability (MTT) (LN-18 cells; LN-18 cells, TAM 15 ug/ml alone) | effect on % cell viability (MTT) (LN-18 cells; monolayer, TAM 5, 10 and 15 μg/ml alone) | effect on % cell viability (MTT) (LN-229 cells) | cellular Par-4 level (western blot) ([1]; LN-18 cell lysates) | secretory Par-4 level (western blot) ([1]; LN-18 supernatants) | cellular Par-4 expression (western blot) [2]
CC/C(=C(\c1ccccc1)c1ccc(OCCN(C)C)cc1)c1ccccc1 [TAM, (Z)-2[p[(1,2-diphenyl-1-butenyl)phenoxyl]-N,N-dimethylamine citrate] | resistant | toxic | dose dependent | resistant | enhanced | enhanced | 
CCCC(CCC)C(=O)O [VPA, Valproic acid] |  |  |  |  |  |  | induced
